In paper PMC9929631 (The EMBO Journal, 2023):
“Also recorded” adds a separate entry of the source. Like-named read-outs stand apart in the source and are kept apart here. Numbered stars: 1 amine (or outer) side, 2 acyl side, 3 side chain; on linkers, the order of the positions; unused ones are H or OH. Square brackets hold non-standard residues; d marks the D form. Ends that are not written are not given here. Peptide text beside a SMILES is read from it. * marks the point of attachment. X1 = N=c1ccc2c(-c3ccccc3C(=O)*)c3ccc(N)c(S(=O)(=O)O)c3oc-2c1S(=O)(=O)O; NMeGABA = CN(CCCC(=O)[*:2])[*:1]

Experiments:
DDB1‐DCAF12 [1] = molecular target: T1, DDB1‐DCAF12 (Homo sapiens, UniProt Q16531+Q5T6F0); experiment: TR-FRET competition assay; assay type: binding
[2] = system: DDB1‐DCAF12, DCAF12 Arg256Ala mutant; assay type: binding, human; settings: TR-FRET titration, n = 3
[3] = system: DDB1‐DCAF12, DCAF12 His144Ala mutant; assay type: binding, human; settings: TR-FRET titration, n = 3
[4] = system: DDB1‐DCAF12, DCAF12 Lys108Ala mutant; assay type: binding, human; settings: TR-FRET titration, n = 3
[5] = system: DDB1‐DCAF12, DCAF12 Arg344Ala mutant; assay type: binding, human; settings: TR-FRET titration, n = 3
[6] = system: DDB1‐DCAF12, DCAF12 Arg203Ala mutant; assay type: binding, human; settings: TR-FRET titration, n = 3
[7] = molecular target: biotinylated strep(II)-avi-DDB1-strep(II)-DCAF12 complex (wild type) (homo sapiens) (UniProt Q16531); experiment: FRET or BRET
DDB1‐DCAF12 [8] = molecular target: T1, DDB1‐DCAF12; experiment: In vitro pull-downs with strep; assay type: binding; settings: strep(II)-tagged DDB1-DCAF12, untagged CCT5; Coomassie-stained SDS–PAGE

T1 sequence (Q5T6F0 whole entry): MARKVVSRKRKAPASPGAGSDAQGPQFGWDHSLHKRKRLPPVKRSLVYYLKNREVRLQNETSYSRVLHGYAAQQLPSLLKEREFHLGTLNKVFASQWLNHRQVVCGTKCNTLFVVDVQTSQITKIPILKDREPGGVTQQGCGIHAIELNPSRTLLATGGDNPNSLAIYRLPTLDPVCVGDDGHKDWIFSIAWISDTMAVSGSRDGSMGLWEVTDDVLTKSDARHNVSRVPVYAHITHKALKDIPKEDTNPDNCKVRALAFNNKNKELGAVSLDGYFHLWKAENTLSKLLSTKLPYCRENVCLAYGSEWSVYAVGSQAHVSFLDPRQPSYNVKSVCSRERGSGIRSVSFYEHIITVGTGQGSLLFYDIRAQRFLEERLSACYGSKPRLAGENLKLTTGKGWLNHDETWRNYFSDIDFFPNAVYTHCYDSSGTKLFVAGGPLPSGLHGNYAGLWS
T1 sequence (Q16531 whole entry partner): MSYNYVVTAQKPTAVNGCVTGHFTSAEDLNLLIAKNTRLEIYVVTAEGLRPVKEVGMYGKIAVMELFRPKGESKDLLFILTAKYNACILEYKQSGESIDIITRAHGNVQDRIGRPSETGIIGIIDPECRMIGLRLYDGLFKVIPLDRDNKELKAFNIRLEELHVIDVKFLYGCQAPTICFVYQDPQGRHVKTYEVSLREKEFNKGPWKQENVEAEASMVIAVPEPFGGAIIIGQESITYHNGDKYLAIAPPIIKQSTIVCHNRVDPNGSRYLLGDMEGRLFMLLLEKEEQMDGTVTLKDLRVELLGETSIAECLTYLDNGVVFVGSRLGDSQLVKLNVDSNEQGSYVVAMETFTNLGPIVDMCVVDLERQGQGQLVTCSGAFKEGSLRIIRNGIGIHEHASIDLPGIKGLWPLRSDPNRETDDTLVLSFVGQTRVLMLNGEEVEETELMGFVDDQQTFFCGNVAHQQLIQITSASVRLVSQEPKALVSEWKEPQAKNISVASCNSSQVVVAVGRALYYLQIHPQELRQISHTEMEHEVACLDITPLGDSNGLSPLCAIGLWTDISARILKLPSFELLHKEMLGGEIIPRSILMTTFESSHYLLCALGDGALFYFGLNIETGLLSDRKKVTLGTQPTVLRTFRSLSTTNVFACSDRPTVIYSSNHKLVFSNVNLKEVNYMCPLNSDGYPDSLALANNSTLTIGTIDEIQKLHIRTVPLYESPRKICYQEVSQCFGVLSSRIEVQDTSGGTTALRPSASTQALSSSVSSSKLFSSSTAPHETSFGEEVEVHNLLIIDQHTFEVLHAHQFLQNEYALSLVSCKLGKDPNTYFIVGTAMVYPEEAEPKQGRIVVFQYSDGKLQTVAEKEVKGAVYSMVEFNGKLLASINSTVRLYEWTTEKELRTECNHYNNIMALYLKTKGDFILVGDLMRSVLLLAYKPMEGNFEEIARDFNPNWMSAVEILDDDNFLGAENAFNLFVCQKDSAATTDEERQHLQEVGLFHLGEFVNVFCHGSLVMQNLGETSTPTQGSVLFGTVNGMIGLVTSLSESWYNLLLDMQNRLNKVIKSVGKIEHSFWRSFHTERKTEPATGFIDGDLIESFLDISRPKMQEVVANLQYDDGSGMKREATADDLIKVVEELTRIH
biotinylated strep(II)-avi-DDB1-strep(II)-DCAF12 complex (wild type) (homo sapiens), sequence (Q16531 whole entry, chain 1 of 2): as the sequence (Q16531 whole entry partner) above
biotinylated strep(II)-avi-DDB1-strep(II)-DCAF12 complex (wild type) (homo sapiens), sequence (Q5T6F0 whole entry, chain 2 of 2, further chain): as the sequence (Q5T6F0 whole entry) above
CCT5_(10) peptide Glu532Ala, sequence (P48643 whole entry, looked up, change not shown, tested part not stated): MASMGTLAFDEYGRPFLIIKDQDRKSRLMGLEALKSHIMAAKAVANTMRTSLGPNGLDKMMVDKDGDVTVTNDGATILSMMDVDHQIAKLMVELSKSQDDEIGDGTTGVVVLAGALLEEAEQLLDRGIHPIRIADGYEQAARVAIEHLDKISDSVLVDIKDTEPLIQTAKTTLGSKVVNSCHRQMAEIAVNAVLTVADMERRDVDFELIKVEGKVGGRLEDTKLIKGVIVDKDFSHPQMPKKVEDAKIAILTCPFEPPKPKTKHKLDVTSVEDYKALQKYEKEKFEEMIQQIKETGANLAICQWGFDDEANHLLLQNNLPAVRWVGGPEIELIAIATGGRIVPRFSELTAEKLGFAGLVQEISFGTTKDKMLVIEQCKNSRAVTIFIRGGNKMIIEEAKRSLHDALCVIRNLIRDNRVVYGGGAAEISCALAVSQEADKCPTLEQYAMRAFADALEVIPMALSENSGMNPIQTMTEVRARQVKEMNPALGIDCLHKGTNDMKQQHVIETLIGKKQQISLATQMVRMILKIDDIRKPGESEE

## DIRKPGESAE [CCT510 E540A]
DDB1‐DCAF12 [1]; IC50, TR-FRET competition against TbDDB1-DCAF12^488, n = 3
  IC50: > 50000 nM

## TRiC: recombinant ~ 1 MDa human TRiC chaperonin complex of eight co‐expressed subunits
DDB1‐DCAF12 [1]; TR-FRET competition against TbDDB1-DCAF12^488, n = 3
  IC50: > 10000 nM

## AIRKPGESEE [CCT510 D532A]
DDB1‐DCAF12 [1]
  IC50: 222 ± 25 nM

## DIRKPGASEE [CCT510 E538A]
DDB1‐DCAF12 [1]
  IC50: 571 ± 103 nM

## EGWRLFKIDKEYLLKMATEE [SAT1_20]
DDB1‐DCAF12 [1]
  IC50: 291 ± 38 nM

## DIAKPGESEE [CCT510 R534A]
DDB1‐DCAF12 [1]
  IC50: 395 ± 68 nM

## CC[C@H](C)[C@H](NC(=O)[C@H](CCSC)NC(=O)[C@H](CCCNC(=N)N)NC(=O)[C@@H](NC(=O)[C@H](CCSC)NC(=O)[C@H](CCC(N)=O)NC(=O)CCCN(C)C(=O)c1ccccc1-c1c2ccc(=N)c(S(=O)(=O)O)c-2oc2c(S(=O)(=O)O)c(N)ccc12)C(C)C)C(=O)N[C@@H](CC(C)C)C(=O)N[C@@H](CCCCN)C(=O)N[C@H](C(=O)N[C@@H](CC(=O)O)C(=O)N[C@@H](CC(=O)O)C(=O)N[C@H](C(=O)N[C@@H](CCCNC(=N)N)C(=O)N[C@@H](CCCCN)C(=O)N1CCC[C@H]1C(=O)NCC(=O)N[C@@H](CCC(=O)O)C(=O)N[C@@H](CO)C(=O)N[C@@H](CCC(=O)O)C(=O)N[C@@H](CCC(=O)O)C(=O)O)[C@@H](C)CC)[C@@H](C)CC [^488CCT5_20] (X1-[NMeGABA]QMVRMILKIDDIRKPGESEE-OH; C-terminus assumed)
[2]
  binding to DCAF12 Arg256Ala mutant (in words): abolished; also recorded: failed to bind
[3]
  binding to DCAF12 His144Ala mutant (in words): failed to bind
[4]
  binding to DCAF12 Lys108Ala mutant (in words): failed to bind
[5]
  binding to DCAF12 Arg344Ala mutant (in words): failed to bind
[6]
  binding to DCAF12 Arg203Ala mutant (in words): abrogated substrate binding

## DIRKAGESEE [CCT510 P536A]
DDB1‐DCAF12 [1]
  IC50: 417 ± 53 nM

## CCT5_(10) peptide Glu532Ala (from UniProt P48643 532-541)
[7]
  IC50: 222 nM

## DARKPGESEE [CCT510 I533A]
DDB1‐DCAF12 [1]
  IC50: 209 ± 25 nM

## CCT5: purified recombinant full‐length human CCT5, a subunit of the TRiC chaperonin, monomeric
DDB1‐DCAF12 [8]
  binding to DDB1-DCAF12 in pull-down (in words): efficiently bound

## DIRKPGESEE [CCT5_10]
DDB1‐DCAF12 [1]
  IC50: 363 ± 78 nM

## CCT5 (1–529): CCT5 mutant without the 12 C‐terminal residues
DDB1‐DCAF12 [8]
  binding to DDB1-DCAF12 in pull-down (in words): did not bind

## DIRKPGEAEE [CCT510 S539A]
DDB1‐DCAF12 [1]
  IC50: 125 ± 15 nM

## DIRAPGESEE [CCT510 K535A]
DDB1‐DCAF12 [1]
  IC50: 208 ± 26 nM
